# Laboratory results as given in patent US11639346B2, “Quinazoline derivatives as modulators of mutant KRAS, HRAS or NRAS” (Araxes Pharma LLC, priority 2017, dated 2023).
# Biological target: T1, KRAS G12C 1-169, his-tagged protein, GDP-loaded (Homo sapiens, UniProt P01116, G12C)
# T1 construct: KRAS G12C 1-169, his-tagged protein, GDP-loaded; His tag
# Test: Biochemical assay: covalent modification of KRAS G12C measured by mass spectrometry
# Type: binding
# Settings: after a 10 minute incubation period
# Description: Test compounds are prepared as 10 mM stock solutions in DMSO (Fisher cat #BP-231-100). KRAS G12C 1-169, his-tagged protein, GDP-loaded is diluted to 2 μM or 0.5 μM in buffer (20 mM Hepes, 150 mM NaCl, 1 mM MgCl2). Compounds are tested for activity as follows:
# Compounds are diluted to 50× final test concentration in DMSO in 96-well storage plates. Compound stock solutions are vortexed before use and observed carefully for any sign of precipitation. […] The plate is then resealed with aluminum seal and stored on dry ice until analyzed as described below.
# The above described assays are analyzed by mass spectrometry according to one of the following two procedures: […]
# After another 30 minute equilibration time, a blank batch (i.e., buffer) is run to ensure equipment is operating properly. […] The method is then run and masses of each individual well recorded. […]
# The masses and peak intensities of KRAS G12C protein species are measured using a Dionex RSLCnano system (Thermo Scientific) connected to a Q Exactive Plus mass spectrometer (Thermo Scientific). […]
# The mass spectrometer is operated in profile mode at a resolution of 17500, 5 microscans, using 50 msec max injection time and an AGC target of 1×10^6, and a full mass range from 800-1850 m/z is recorded. […]
# T1 sequence (P01116 1-169 isoform P01116-2 G12C): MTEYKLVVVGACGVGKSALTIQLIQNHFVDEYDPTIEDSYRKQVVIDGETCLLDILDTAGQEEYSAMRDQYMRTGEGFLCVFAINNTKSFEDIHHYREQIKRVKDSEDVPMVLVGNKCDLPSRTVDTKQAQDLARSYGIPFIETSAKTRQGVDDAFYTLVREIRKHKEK
compound,measurement,value
"C=CC(=O)N1C[C@H](C)N(c2nc(C3CN(C(C)C)C3)nc3c(F)c(-c4c(O)cccc4F)c(Cl)cc23)C[C@H]1C (atropisomer, axis not shown) [Compound 1, 1-((2R,5S)-4-((S)-6-chloro-8-fluoro-7-(2-fluoro-6-hydroxyphenyl)-2-(1-isopropylazetidin-3-yl)quinazolin-4-yl)-2,5-dimethylpiperazin-1-yl)prop-2-en-1-one]",binding to KRAS G12C (modification percentage),greater than 75%
